{"source": "patent EP0313908A2", "about": "“Halogen-substituted phenoxyphenylpropionic acid derivatives” (BAYER AG, priority 1987, dated 1989)", "key": {"[1]": {"tested_on": "Unkräuter, wie z. B. Amaranthus, Chenopodium, Ipomoea, Portulak und Solanum", "assay": "Post-emergence test (herbicidal action on weeds)", "format": "in vivo", "settings": "post-emergence spray on test plants 5 - 15 cm high, 2000 l Wasser/ha; damage rated after three weeks against untreated control; stated in comparison with Vergleichssubstanz (A)", "excerpt": "(§1) Post-emergence-Test Lösungsmittel: 5 Gewichtsteile Aceton Emulgator: 1 Gewichtsteil Alkylarylpolyglykolether\n(§2) Zur Herstellung einer zweckmäßigen Wirkstoffzubereitung vermischt man 1 Gewichtsteil Wirkstoff mit der angegebenen Menge Lösungsmittel, gibt die angegebene Menge Emulgator zu und verdünnt das Konzentrat mit Wasser auf die gewünschte Konzentration.\n(§3) Mit der Wirkstoffzubereitung spritzt man Testpflanzen, welch eine Höhe von 5 - 15 cm haben so, daß die jeweils gewünschten Wirkstoffmengen pro Flächeneinheit ausgebracht werden. Die Konzentration der Spritzbrühe wird so gewählt, daß in 2000 l Wasser/ha die jeweils gewünschten Wirkstoffmengen ausgebracht werden. Nach drei Wochen wird der Schädigungsgrad der Pflanzen bonitiert in % Schädigung im Vergleich zur Entwicklung der unbehandelten Kontrolle. Es bedeuten: 0 % = keine Wirkung (wie unbehandelte Kontrolle) 100 % = totale Vernichtung"}, "Mais": {"tested_on": "Mais", "settings": "in vivo", "excerpt": "as §1, §2, §3"}, "Baumwollpflanzen": {"tested_on": "Baumwollpflanzen", "assay": "Defoliation and desiccation of the leaves of cotton", "format": "in vivo, Baumwolle", "settings": "cotton plants in the greenhouse, 5th leaf fully unfolded, sprayed dripping wet; rated after 1 week against control plants (scale 0, +, ++, +++)", "excerpt": "Entlaubung und Austrocknung der Blätter bei Baumwolle\nLösungsmittel: 30 Gewichtsteile Dimethylformamid Emulgator: 1 Gewichtsteil Polyoxyethylen-Sorbitan-Monolaurat\nZur Herstellung einer zweckmäßigen Wirkstoffzubereitung vermischt man 1 Gewichtsteil Wirkstoff mit den angegebenen Mengen Lösungsmittel und Emulgator und füllt mit Wasser auf die gewünschte Konzentration auf.\nBaumwollpflanzen werden im Gewächshaus bis zur vollen Entfaltung des 5. Folgeblattes angezogen. In diesem Stadium werden die Pflanzen tropfnaß mit den Wirkstoffzubereitungen besprüht. Nach 1 Woche werden der Blattfall und das Austrocknen der Blätter im Vergleich zu den Kontrollpflanzen bonitiert. Es bedeuten: 0 kein Austrocknen der Blätter, kein Blattfall + leichtes Austrocknen der Blätter, geringer Blattfall ++ starkes Austrocknen der Blätter, starker Blattfall +++ sehr starkes Austrocknen der Blätter, sehr starker Blattfall"}}, "data": [{"smiles": "COC(=O)CCc1cc(Oc2c(Cl)cc(C(F)(F)F)cc2Cl)ccc1Cl", "note": "[Beispiel 3, 3-[3-(2,6-dichlor-4-trifluormethyl-phenoxy)-6-chlor-phenyl]-propionsäuremethylester]", "values": [{"measurement": "Wirkung gegen Unkräuter", "setting": "[1]", "value": "erheblich stärkere Wirkung"}, {"measurement": "Selektivität in Mais", "setting": "Mais", "value": "guter Selektivität"}, {"measurement": "Austrocknen der Blätter", "setting": "Baumwollpflanzen", "value": "sehr starkes"}, {"measurement": "Blattfall", "setting": "Baumwollpflanzen", "value": "sehr starken"}]}, {"smiles": "COC(=O)C(Br)Cc1cc(Oc2c(Cl)cc(C(F)(F)F)cc2Cl)c(Cl)cc1Cl", "note": "(stereo not drawn) [Beispiel 2, 2-Brom-3-[3-(2,6-dichlor-4-trifluormethyl-phenoxy)-4,6-dichlorphenyl]-propionsäuremethylester]", "values": [{"measurement": "Wirkung gegen Unkräuter", "setting": "[1]", "value": "erheblich stärkere Wirkung"}, {"measurement": "Selektivität in Mais", "setting": "Mais", "value": "guter Selektivität"}]}, {"smiles": "COC(=O)C(Cl)Cc1cc(Oc2c(Cl)cc(C(F)(F)F)cc2Cl)ccc1Cl", "note": "(stereo not drawn) [Beispiel 1, 2-Chlor-3-[3-(2,6-dichlor-4-trifluormethyl-phenoxy)-6-chlor-phenyl]-propionsäure-methylester]", "values": [{"measurement": "Wirkung gegen Unkräuter", "setting": "[1]", "value": "erheblich stärkere Wirkung"}, {"measurement": "Selektivität in Mais", "setting": "Mais", "value": "guter Selektivität"}, {"measurement": "Austrocknen der Blätter", "setting": "Baumwollpflanzen", "value": "sehr starkes"}, {"measurement": "Blattfall", "setting": "Baumwollpflanzen", "value": "sehr starken"}]}, {"smiles": "COC(=O)CC(Br)c1cc(Oc2c(Cl)cc(C(F)(F)F)cc2Cl)ccc1Cl", "note": "(stereo not drawn) [Beispiel 4, 3-Brom-3-[3-(2,6-dichlor-4-trifluormethyl-phenoxy)-6-chlorphenyl]-propionsäuremethylester]", "values": [{"measurement": "Wirkung gegen Unkräuter", "setting": "[1]", "value": "erheblich stärkere Wirkung"}, {"measurement": "Selektivität in Mais", "setting": "Mais", "value": "guter Selektivität"}]}]}
